Results reported in US9133131B2 (Purdue Pharma L.P., priority 2011, dated 2015).

These molecules were tested against human Nav1.7 (Homo sapiens (Human), UniProt Q15858) (assay: FLIPR sodium dye assay for sodium channel blocking activity). Settings: recombinant human Nav1.7 in HEK293 cells.
Format: cell-based
Text: For dominant selection of the Nav1.7-expressing clones, the expression plasmid co-expressed the neomycin resistance gene. […] Recombinant beta and gamma subunits were not introduced into this cell line. Additional cell lines expressing recombinant Nav1.7 cloned from other species can also be used, alone or in combination with various beta subunits, gamma subunits or chaperones.
Cell maintenance: Unless otherwise noted, cell culture reagents were purchased from Mediatech of Herndon, Va. The recombinant Nav1.7/HEK293 cells were routinely cultured in growth medium consisting of Dulbecco's […] essential medium containing 10% fetal bovine serum (FBS, Hyclone, Thermo Fisher Scientific, Logan, Utah), 100 U/mL penicillin, 100 μg/mL streptomycin, 2-4 mM L-glutamine, and […] G418. For natural, non-recombinant cell lines, the selective antibiotic was omitted, and additional media formulations can be applied as needed.
The intensity of this emission, but not the wavelength range, is increased when the dye is exposed to Na^+ ions, which it can bind with partial selectivity. Cells expressing Nav1.7 or other sodium channels were loaded with the CoroNa™ Green dye immediately in advance of the fluorescence assay, and then, after agonist stimulation, the mobilization of Na^+ ions was detected as the Na^+ ions flowed from the extracellular fluid into the cytoplasm through the activated sodium channel pores. The dye was stored in the dark as a lyophilized powder, and then an aliquot was dissolved immediately before the cell loading procedure, according to the instructions of the manufacturer to a stock concentration of 10 mM in DMSO. It was then diluted in the assay buffer to a 4× concentrated working solution, so that the final concentration of dye in the cell loading buffer was 5 μM.
These scorpion toxins inhibit the fast inactivation of their cognate target channels. Stock solutions of the agonists were prepared to 40 mM in DMSO (veratridine) and 1 mg/mL in dH2O (scorpion venom), and then diluted to make a 4× or 2× stock (depending on the particular assay) in assay buffer, the final concentration being 100 μM (veratridine) and 10 μg/mL (scorpion venom). Both of the agonists were purchased from Sigma Aldrich, St. Louis, Mo.
Test Compounds: Test compounds were dissolved in DMSO to yield 10 mM stock solutions. […] If a particular test article appeared to be especially potent, then the concentration curve was adjusted, e.g., to 10-fold lower concentrations, in order to perform the dose-response in a more relevant concentration range. Compound dilutions were added during the dye-loading and pre-stimulation step, and then again during the fluorescence assay, early in the kinetic read.
Data Analysis: The data were analyzed according to methods known to those skilled in the art or using the GraphPad® Prism version 4.0 or higher, Program (available from GraphPad Software, San Diego, Calif.) to determine the IC50 value for the test article. At least one standard reference compound was evaluated during each experiment.
FLIPR® or FLIPR^TETRA® sodium dye assay with KCl and test article pre-incubation: Cells were prepared by plating the recombinant HEK293 cells or other host cells expressing either recombinant or non-recombinant, native, Nav1.7 alpha subunit, alone or in combination with various beta and gamma subunits at a density of ˜40,000 cells/well into a 96-well black, clear-bottom, PDL-coated plate. The assay can be adapted to 384-well or 1,536-well format, if desired, using proportionately less cells and media. The plate was then incubated in growth media, with or without selective antibiotic, overnight at 37° C. at 5% CO2, 95% humidity, in preparation for the assay. For counter-screens of other voltage-gated sodium channels, the procedure was very similar, though optimal densities of cells, media and subsequent assay components can be fine-tuned for the particular cell line or isoform.

human Nav1.7, sequence (Q15858 other isoform, or with tags, fused parts or gaps): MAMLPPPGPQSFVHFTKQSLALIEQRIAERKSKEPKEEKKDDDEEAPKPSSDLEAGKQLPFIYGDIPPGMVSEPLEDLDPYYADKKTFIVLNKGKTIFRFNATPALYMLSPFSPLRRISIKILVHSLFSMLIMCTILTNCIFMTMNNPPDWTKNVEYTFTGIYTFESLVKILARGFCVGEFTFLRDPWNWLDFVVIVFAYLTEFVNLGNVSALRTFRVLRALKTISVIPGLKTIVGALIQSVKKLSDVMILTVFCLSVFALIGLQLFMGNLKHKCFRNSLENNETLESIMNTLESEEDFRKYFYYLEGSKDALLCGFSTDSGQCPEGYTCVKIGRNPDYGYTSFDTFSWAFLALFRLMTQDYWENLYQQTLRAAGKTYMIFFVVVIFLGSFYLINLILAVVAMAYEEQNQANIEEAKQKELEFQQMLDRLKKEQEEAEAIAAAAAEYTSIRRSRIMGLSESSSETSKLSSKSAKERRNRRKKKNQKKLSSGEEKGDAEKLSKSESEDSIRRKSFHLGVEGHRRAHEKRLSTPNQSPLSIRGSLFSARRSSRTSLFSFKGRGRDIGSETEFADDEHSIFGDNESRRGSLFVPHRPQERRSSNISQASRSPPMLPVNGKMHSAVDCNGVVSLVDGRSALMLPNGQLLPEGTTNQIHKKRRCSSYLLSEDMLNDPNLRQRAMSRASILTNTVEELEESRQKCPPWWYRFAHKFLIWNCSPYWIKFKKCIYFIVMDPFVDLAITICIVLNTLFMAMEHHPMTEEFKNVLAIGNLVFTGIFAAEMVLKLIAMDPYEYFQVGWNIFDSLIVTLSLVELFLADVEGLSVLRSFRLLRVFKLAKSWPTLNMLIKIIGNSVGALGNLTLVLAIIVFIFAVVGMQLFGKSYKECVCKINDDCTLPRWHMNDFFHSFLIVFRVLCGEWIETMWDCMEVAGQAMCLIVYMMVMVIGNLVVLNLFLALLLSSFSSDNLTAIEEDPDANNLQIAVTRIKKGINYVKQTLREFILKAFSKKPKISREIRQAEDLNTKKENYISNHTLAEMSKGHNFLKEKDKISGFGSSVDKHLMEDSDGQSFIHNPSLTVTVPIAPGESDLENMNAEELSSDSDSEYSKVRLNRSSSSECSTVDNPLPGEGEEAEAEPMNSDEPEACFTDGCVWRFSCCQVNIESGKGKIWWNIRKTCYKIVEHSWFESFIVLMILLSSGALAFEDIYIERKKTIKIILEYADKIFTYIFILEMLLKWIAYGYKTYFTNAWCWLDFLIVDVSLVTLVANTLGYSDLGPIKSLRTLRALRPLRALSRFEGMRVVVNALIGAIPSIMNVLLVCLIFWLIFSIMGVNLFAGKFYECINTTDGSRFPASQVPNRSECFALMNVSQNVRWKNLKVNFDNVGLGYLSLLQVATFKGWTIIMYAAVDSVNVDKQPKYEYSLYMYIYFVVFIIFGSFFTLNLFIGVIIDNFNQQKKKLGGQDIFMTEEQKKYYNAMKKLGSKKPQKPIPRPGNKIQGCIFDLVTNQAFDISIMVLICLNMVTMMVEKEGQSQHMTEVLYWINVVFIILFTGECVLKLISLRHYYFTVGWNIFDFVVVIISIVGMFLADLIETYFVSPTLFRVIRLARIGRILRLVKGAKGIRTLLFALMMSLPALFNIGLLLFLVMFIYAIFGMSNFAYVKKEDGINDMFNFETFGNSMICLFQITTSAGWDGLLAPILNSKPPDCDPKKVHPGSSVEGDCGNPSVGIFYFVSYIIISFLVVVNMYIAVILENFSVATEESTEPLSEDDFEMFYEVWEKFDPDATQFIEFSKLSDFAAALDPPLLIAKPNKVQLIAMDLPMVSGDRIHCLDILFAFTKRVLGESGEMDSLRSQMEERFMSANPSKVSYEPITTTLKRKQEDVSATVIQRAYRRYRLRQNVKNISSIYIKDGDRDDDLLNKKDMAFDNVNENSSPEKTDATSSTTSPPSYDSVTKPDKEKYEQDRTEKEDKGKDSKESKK

| SMILES | IC50 |
| --- | --- |
| COC(=O)[C@H](C)NC(=O)c1cc([C@H](O)CO)nc(-c2ccc(Oc3ccc(F)cc3)cc2)n1 [compound 14] | 1920 ± 401 nM |
| N#Cc1ccc(Oc2ccc(-c3nc(C(N)=O)cc([C@@H](O)CO)n3)cc2)cc1C(F)(F)F [compound 12] | 384 ± 29 nM |
| NC(=O)c1cc([C@H](O)CO)nc(-c2ccc(Oc3ccc(C(F)(F)F)cc3)cc2)n1 [compound 17] | 133 ± 26 nM |
| NC(=O)c1cc([C@@H](O)CO)nc(-c2ccc(Oc3ccc(Cl)cc3F)cc2)n1 [compound 9] | 67 ± 5 nM |
| C[C@H](NC(=O)c1cc([C@H](O)CO)nc(-c2ccc(Oc3ccc(F)cc3)cc2)n1)C(N)=O [compound 16] | 593 ± 4 nM |
| NC(=O)c1cc([C@H](O)CO)nc(-c2ccc(Oc3ccc(Cl)cc3F)cc2)n1 [compound 10] | 84 ± 29 nM |
| N#Cc1ccc(Oc2ccc(-c3nc(C(N)=O)cc([C@H](O)CO)n3)cc2)cc1C(F)(F)F [compound 13] | 394 ± 19 nM |
| NC(=O)c1cc([C@@H](O)CO)nc(-c2ccc(Oc3ccc(C(F)(F)F)cc3)cc2)n1 [compound 18] | 135 ± 28 nM |
| C[C@H](NC(=O)c1cc([C@H](O)CO)nc(-c2ccc(Oc3ccc(F)cc3)cc2)n1)C(=O)O [compound 15] | > 20000 nM |
| NC(=O)c1cc([C@H](O)CO)nc(-c2ccc(Oc3ccc(C(F)(F)F)cn3)cc2)n1 [compound 19] | 325 nM |
| N#Cc1cc(Oc2ccc(-c3nc(C(N)=O)cc([C@H](O)CO)n3)cc2)ccc1C(F)(F)F [compound 11] | 279 ± 112 nM |
| N#Cc1ccc(Oc2ccc(-c3nc(C(N)=O)cc([C@H](O)CO)n3)cc2)c(C(F)(F)F)c1 [compound 5] | 526 ± 129 nM |

Each molecule was assayed against hNav1.7 (Homo sapiens (Human), UniProt Q15858) (assay: Electrophysiology (EP) whole-cell patch clamp assay). Settings: affinity for the inactivated state of the channel; hNav1.7 HEK-293 cells; read-out: Nav1.7 Activity EP assay Ki.
hNav1.7, sequence (Q15858 other isoform, or with tags, fused parts or gaps): as above
Format: cell-based
Protocol: Cells: The hNav1.7 expressing HEK-293 cells were plated on 35 mm culture dishes pre-coated with poly-D-lysine in standard DMEM culture media (Mediatech, Inc., Herndon, Va.) and incubated in a 5% CO2 incubator at 37° C. Cultured cells were used approximately 12-48 hours after plating.
Electrophysiology: On the day of experimentation, the 35 mm dish was placed on the stage of an inverted microscope equipped with a perfusion system that continuously perfuses the culture dish with fresh recording media. A gravity driven superfusion system was used to apply test solutions directly to the cell under evaluation. This system consists of an array of glass pipette glass connected to a motorized horizontal translator. The outlet of the shooter was positioned approximately 100 μm from the cell of interest.
Whole cell currents were recorded using the whole-cell patch clamp configuration using an Axopatch 200B amplifier (Axon Instruments, Foster City Calif.), 1322A A/D converter (Axon Instruments) and pClamp software (v. 8; Axon Instruments) and stored on a personal computer. Gigaseals were formed and the whole-cell configuration was established in voltage clamp mode, and membrane currents generated by hNav1.7 were recorded in gap-free mode. Borosilicate glass pipettes have resistance values between 1.5 and 2.0 MΩ when filled with pipette solution and series resistance (<5 MΩ) was compensated 75-80%. Signals were sampled at 50 kHz and low pass filtered at 3 kHz.
Voltage protocols: After establishing the whole-cell configuration in voltage clamp mode, voltage protocols were run to establish the 1) test potential, 2) holding potential, and 3) the conditioning potential for each cell.
After establishing the whole-cell configuration in voltage clamp mode, a standard I-V protocol was run to determine the potential at which the maximal current (Imax) is elicited. This potential was the test potential (Vt). To determine a conditioning potential at which 100% of channels were in the inactivated state, a standard steady-state inactivation (SSIN) protocol was run using a series of fifteen 100 ms-long depolarizing prepulses, incrementing in 10 mV steps, immediately followed by a 5 ms testing pulse, Vt, to Vmax. This protocol also permitted determination of the holding potential at which all channels are in the resting state.
For compounds causing significant retardation of recovery from inactivation, an estimate of the affinity for the inactivated state of the channel (Ki) was generated using the following protocol. From the negative, no residual inactivation, holding potential, the cell was depolarized to the conditioning voltage for 2-5 seconds, returned to the negative holding potential for 10-20 ms to relieve fast inactivation and then depolarized to the test potential for ˜15 ms. This voltage protocol was repeated every 10-15 seconds, first to establish a baseline in the absence of the test compound, then in the presence of the test compound.
After a stable baseline was established, the test compound was applied and block of the current elicited by the test pulse assessed. In some cases, multiple cumulative concentrations were applied to identify a concentration that blocked between 40-60% of this current. Washout of the compound was attempted by superfusing with control solution once steady-state block was observed. An estimate of the Ki was calculated as follows: Ki=[drug]*{FR/(1−FR)}, Eq. 1
where [drug] is the concentration of a drug, and FR=I(after drug)/I(control), Eq. 2 where I is the peak current amplitude. If multiple concentrations were used, Ki was determined from the fit of a logistic equation to FRs plotted against corresponding drug concentrations.
In the alternative, the voltage clamp protocol to examine hNav1.7 currents was as follows. […]

| SMILES | Ki |
| --- | --- |
| N#Cc1ccc(Oc2ccc(-c3nc(C(N)=O)cc([C@@H](O)CO)n3)cc2)cc1C(F)(F)F [compound 12] | 400 ± 90 nM |
| NC(=O)c1cc([C@@H](O)CO)nc(-c2ccc(Oc3ccc(Cl)cc3F)cc2)n1 [compound 9] | 27 ± 0.3 nM |
| C[C@H](NC(=O)c1cc([C@H](O)CO)nc(-c2ccc(Oc3ccc(F)cc3)cc2)n1)C(N)=O [compound 16] | 643 ± 190 nM |
| N#Cc1ccc(Oc2ccc(-c3nc(C(N)=O)cc([C@H](O)CO)n3)cc2)cc1C(F)(F)F [compound 13] | 195 ± 30 nM |
| N#Cc1cc(Oc2ccc(-c3nc(C(N)=O)cc([C@H](O)CO)n3)cc2)ccc1C(F)(F)F [compound 11] | 147 ± 30 nM |

Same assay, conditions: resting block dissociation constant; hNav1.7 HEK-293 cells; read-out: Nav1.7 Activity EP assay Kr

| SMILES | Kd |
| --- | --- |
| N#Cc1ccc(Oc2ccc(-c3nc(C(N)=O)cc([C@@H](O)CO)n3)cc2)cc1C(F)(F)F [compound 12] | 8.67 ± 0.99 µM |
| NC(=O)c1cc([C@@H](O)CO)nc(-c2ccc(Oc3ccc(Cl)cc3F)cc2)n1 [compound 9] | 1.04 ± 0.23 µM |
| C[C@H](NC(=O)c1cc([C@H](O)CO)nc(-c2ccc(Oc3ccc(F)cc3)cc2)n1)C(N)=O [compound 16] | 154 ± 54.4 µM |
| N#Cc1ccc(Oc2ccc(-c3nc(C(N)=O)cc([C@H](O)CO)n3)cc2)cc1C(F)(F)F [compound 13] | 5.15 ± 0.36 µM |
| N#Cc1cc(Oc2ccc(-c3nc(C(N)=O)cc([C@H](O)CO)n3)cc2)ccc1C(F)(F)F [compound 11] | 2.01 ± 0.31 µM |
